# Laboratory results taken from US20090315454A1, “IRIDIUM COMPLEX COMPOUND, ORGANIC ELECTROLUMINESCENT DEVICE OBTAINED BY USING THE SAME, AND USES OF THE DEVICE” (Showa Denko K.K., priority 2006, published 2009).
# Assay: Solubility test (visual, complete dissolution at prescribed concentration)
# Assay type: physicochemical
# Parameters: key: A: completely dissolved; B: partially undissolved
# Conditions: stirred at room temperature for one hour
# Description: The facial and meridional iridium complex compounds (A) synthesized in Example 1 and the facial iridium complex compounds (B) to (D) synthesized in Examples 2 to 4 were tested for solubility. The test was carried out by mixing the iridium complex compound with chloroform or toluene so that a prescribed concentration was obtained, and visually determining if the iridium complex compound was completely dissolved or partially undissolved after the mixture had been stirred at room temperature for one hour.
# Iridium complex compounds Ir(ppy)3 (the following Formula (Y)) and Ir(Fppy)3 (the following Formula (X)) were tested for solubility. The test was carried out by mixing the iridium complex compound with chloroform or toluene so that a prescribed concentration was obtained, and visually determining if the iridium complex compound was completely dissolved or partially undissolved after the mixture had been stirred at room temperature for one hour.
smiles,measurement,setting,value
CC(C)(C)c1ccnc(-c2[c-]cc(F)cc2F)c1.CC(C)(C)c1ccnc(-c2[c-]cc(F)cc2F)c1.CC(C)(C)c1ccnc(-c2[c-]cc(F)cc2F)c1.[Ir+3] [Compound (A) meridional complex],Solubility at concentration 0.1 wt %,chloroform,A
same,Solubility at concentration 0.5 wt %,chloroform,A
same,Solubility at concentration 1 wt %,chloroform,A
same,Solubility at concentration 0.1 wt %,toluene,A
same,Solubility at concentration 0.5 wt %,toluene,A
same,Solubility at concentration 1 wt %,toluene,A
CCCCCc1ccnc(-c2c(F)cc(F)c[c]2[Ir]([c]2cc(F)cc(F)c2-c2cc(CCCCC)ccn2)[c]2cc(F)cc(F)c2-c2cc(CCCCC)ccn2)c1 [Compound (B) facial complex],Solubility at concentration 0.1 wt %,chloroform,A
same,Solubility at concentration 0.5 wt %,chloroform,A
same,Solubility at concentration 1 wt %,chloroform,A
same,Solubility at concentration 0.1 wt %,toluene,A
same,Solubility at concentration 0.5 wt %,toluene,B
same,Solubility at concentration 1 wt %,toluene,B
CCCCC(CCCC)c1ccnc(-c2c(F)cc(F)c[c]2[Ir]([c]2cc(F)cc(F)c2-c2cc(C(CCCC)CCCC)ccn2)[c]2cc(F)cc(F)c2-c2cc(C(CCCC)CCCC)ccn2)c1 [Compound (C) facial complex],Solubility at concentration 0.1 wt %,chloroform,A
same,Solubility at concentration 0.5 wt %,chloroform,A
same,Solubility at concentration 1 wt %,chloroform,A
same,Solubility at concentration 0.1 wt %,toluene,A
same,Solubility at concentration 0.5 wt %,toluene,A
same,Solubility at concentration 1 wt %,toluene,B
CCCc1cc(-c2c(F)cc(F)c[c]2[Ir]([c]2cc(F)cc(F)c2-c2cc(CCC)c(CC)cn2)[c]2cc(F)cc(F)c2-c2cc(CCC)c(CC)cn2)ncc1CC [Compound (D) facial complex],Solubility at concentration 0.1 wt %,chloroform,A
same,Solubility at concentration 0.5 wt %,chloroform,A
same,Solubility at concentration 1 wt %,chloroform,A
same,Solubility at concentration 0.1 wt %,toluene,A
same,Solubility at concentration 0.5 wt %,toluene,A
same,Solubility at concentration 1 wt %,toluene,A
